From patent US5840711A, “Compositions containing lithium inorganic salts and anti-viral drugs and method of treating viral infections such as acquired immunodeficiency syndrome” (priority 1997, dated 1998)

Columns and labels:
non-infected H9 cells = conditions: 4 days incubation in vitro
Source text: Lithium gamma linolenate (LiGLA) for this study was obtained from Enfamol, Kentville, Nova Scotia, Canada.

[1] = system: CFU-GM (Myeloid) of normal bone marrow cells; assay: AZT bone marrow toxicity in vitro, CFU-GM colony formation; assay type: cell-based; further: unit not given here
Source text: (§1) This is a standard practice.

[2] = system: H9 cells that are chronically infected with HIV; assay: LiGLA 4 days incubation in vitro with H9 cells chronically infected with HIV; assay type: cell-based
[3] = system: CFU-Meg (Megakaryocyte) of normal bone marrow cells; assay: AZT bone marrow toxicity in vitro, CFU-Meg colony formation; assay type: cell-based; further: unit not given here
Source text: as §1

[4] = system: BFU-E (Erythroid) of normal bone marrow cells; assay: AZT bone marrow toxicity in vitro, BFU-E colony formation; assay type: cell-based; further: unit not given here
Source text: as §1

CCCCC/C=C\C/C=C\C/C=C\CCCCC(=O)[O-].[Li+] [Li-GLA, lithium gamma-linolenate]
H9 cells killed (non-infected H9 cells): 20% | CFU-GM (Myeloid) colonies ([1]; Li-GLA 10 μg/ml): 66.5 | CFU-GM (Myeloid) colonies ([1]; Li-GLA 15 μg/ml): 55.5 | CFU-GM (Myeloid) colonies ([1]; Li-GLA 20 μg/ml): 45.0 | H9 cells killed [2]: 90% | CFU-Meg (Megakaryocyte) colonies ([3]; Li-GLA 10 μg/ml): 32.0 ± 3 | CFU-Meg (Megakaryocyte) colonies ([3]; Li-GLA 15 μg/ml): 28.0 ± 4 | CFU-Meg (Megakaryocyte) colonies ([3]; Li-GLA 20 μg/ml): 24.0 ± 3 | BFU-E (Erythroid) colonies ([4]; Li-GLA 10 μg/ml): 50 ± 4 | BFU-E (Erythroid) colonies ([4]; Li-GLA 15 μg/ml): 44 ± 4 | BFU-E (Erythroid) colonies ([4]; Li-GLA 20 μg/ml): 31 ± 3
